The text below walks through data of patent publication US5470837A, “5'-vinylhalo-aristeromycin/adenosine analogs and immunosuppressants” (Merrell Dow Pharmaceuticals Inc., priority 1994, dated 1995).

Experiment [1] deals with human peripheral blood mononuclear cells. Briefly: Mitogenic assay: pokeweed mitogen stimulated proliferation ([3H]-thymidine incorporation) of human peripheral blood mononuclear cells. The experiment is classed as cell-based. How it is done:
Cells: Human peripheral blood mononuclear cells were isolated from samples of blood (in 0.01M sodium citrate) using 50 mL LEUKOPREP® separation tubes (Becton Dickenson, Lincoln Park, N.J.). Tubes were centrifuged at room temperature for 15 minutes at 2400 rpm in a swinging bucket rotor. The cells recovered at interface were washed in Dulbecco's PBS and resuspended in RPMI 1640 containing 10% FCS, 5×10^-5 M 2-mercaptoethanol, 2 mM L-glutamine, 1% penicillin-streptomycin and 1 mM HEPES buffer (CM). Mitogenic Assay: Human peripheral blood mononuclear cells (2×10^5) were incubated with pokeweed mitogen at a final concentration of 0.1 μg/mL or Concanavalin A at a final concentration of 1.0 μg/mL in 96 well flat-bottomed microtiter plates (Falcon 3072, Becton Dickinson). Compounds to be tested were added at the initiation of culture. The final volume was 0.2 mL. The cultures were incubated in 95% humidified air/5% CO2 at 37° C. for 2 days (Concanavalin A) or 6 days (Pokeweed mitogen). Eighteen hours before termination of the cultures, each well was pulsed with 1 μCi of [^3 H]-thymidine. Cells from individual wells were harvested onto glass fiber filter paper with an automated multi-sample harvester. Filters were placed in scintillation fluid (Universal Cocktail, ICN Radiochemicals, Irvin, Calif.) and the [^3 H]-thymidine incorporation, in counts per minute (cpm), was measured in a Packard Tri-carb 4640 Scintillation Counter. Peripheral blood mononuclear cells from three individuals were cultured with an optimal concentration of pokeweed mitogen, a T-dependent B-cell mitogen, in the presence of increasing concentrations of (Z)-4',5'-didehydro-5'-deoxy-5'-fluoroadenosine. […] Similar studies were performed culturing human peripheral blood cells with an optimal concentration of Concanavalin A, a potent T-cell mitogen.
On the technique in general: Dividing cells build labelled thymidine or BrdU into new DNA.

The subject of another experiment is anti-ovalbumin IgG. Briefly: In vivo immune response to T-dependent antigen (ovalbumin): serum anti-ovalbumin IgG by ELISA. Further details: species or system mice. Conditions: for Anti-Ovalbumin Titer ± S.D.: ten days after immunization, dilution giving absorbance 0.750 at 405 nm. How it is done: In vivo immune response: Mice were radomly distributed by weight into 3 groups of ten. Dosing i.p. with Dulbecco's phosphate buffered saline (PBS) or (Z)-4',5'-didehydro-5'-deoxy-5'-fluoroadenosine (at 5 or 10 mg/Kg) dissolved in PBS was begun one day prior to immunization. Ovalbumin (Sigma, St. Louis, Mo.) at 2 mg/mL in PBS was emulsified in an equal volume of Freunds complete adjuvant and 50 μL, containing 50 μg ovalbumin, was injected into each footpad. Animals were dosed daily. Ten days after the immunization, the animals were bled for serum and sacrificed. Serum levels of anti-ovalbumin IgG were quantitated in an ELISA. Specifically, 100 μL of a 1% ovalbumin solution in Tris-bufferedsaline (TBS) (20 mM Tris, 500 mM NaCl, pH 7.5) was added to individual wells of a 96 well ELISA microtiter plate. The plate was incubated for 2 hours at room temperature and the wells were washed 3 times with TBS containing 0.05% Tween 20 (TBS-Tween). Dilutions of the serum samples in TBS-Tween (100 μL) were added to the wells, which were then incubated for one hour at room temperature. The plate was again washed 3 times with TBS-Tween. The wells were then incubated with 100 μL of a 1:1000 dilution of rabbit anti-mouse IgG labled with horse radish peroxidase (Bio-Rad, Richmond, Calif.) for one hour at room temperature. After washing 3 times with TBS-Tween, the wells were incubated with 100 μL of Bio-Rad peroxidase substrate [2,2'-azino-di-(3-ethyl-benzthiazoline sulfonate) in cocodylic acid buffer and hydrogen peroxide]. Absorbance at 405 nm was measured and the antibody titer was calculated from the linear regression curve of each serum sample and is reported as the log of the dilution which gave an absorbance reading of 0.750, unless otherwise indicated.
In general terms: An ELISA detects its analyte on a solid surface through an enzyme-linked reagent.

Experiment [2] concerns murine splenic mononuclear cells. The experiment is described as follows: Mitogenic assay: Concanavalin A stimulated proliferation ([3H]-thymidine incorporation) of murine splenic mononuclear cells. The experiment is classed as cell-based, CD-1 mice. The source says: Cells: Spleens and/or lymph nodes from a total of 16 individual outbred CD-1 mice (Charles River, Wilmington, Mass.) were asceptically removed, pooled, and single cell suspensions were made in Hank's Balanced Salt Solution (HBSS, calcium and magnesium free). Erythrocytes were lysed by treatment with Tris-buffered ammonium chloride (0.155M NH4 Cl, 0.0165M Tris, pH 7.2). Mononuclear cells were washed with HBSS and resuspended in Dulbecco's PBS and resuspended in RPMI 1640 containing 10% FCS, 5×10^-5 M 2mercaptoethanol, 2 mM L-glutamine, 1% penicillin-streptomycin and 1 mM HEPES buffer (CM).
Mitogenic Assay: Murine splenic mononuclear cells (5×10^5) were incubated with Concanavalin A at a final concentration of 2.5 μg/mL in 96 well flat-bottomed microtiter plates. Compounds to be tested were added at the initiation of culture. The final volume was 0.2 mL. The cultures were incubated in 95% humidified air/5% CO2 at 37° C. for 2 days. Eighteen hours before termination of the cultures, each well was pulsed with 1 μCi of [^3 H]-thymidine. Cells from individual wells were harvested onto glass fiber filter paper with an automated multi-sample harvester. Filters were placed in scintillation fluid (Universal Cocktail, ICN Radiochemicals, Irvin, Calif.) and the [^3 H]-thymidine incorporation, in counts per minute (cpm), was measured in a Packard Tri-carb 4640 Scintillation Counter.

Experiment [3] concerns human peripheral blood mononuclear cells. The experiment is described as follows: Mitogenic assay: Concanavalin A stimulated proliferation ([3H]-thymidine incorporation) of human peripheral blood mononuclear cells. The experiment is classed as cell-based. How it is done:
Cells: Human peripheral blood mononuclear cells were isolated from samples of blood (in 0.01M sodium citrate) using 50 mL LEUKOPREP® separation tubes (Becton Dickenson, Lincoln Park, N.J.). Tubes were centrifuged at room temperature for 15 minutes at 2400 rpm in a swinging bucket rotor. The cells recovered at interface were washed in Dulbecco's PBS and resuspended in RPMI 1640 containing 10% FCS, 5×10^-5 M 2-mercaptoethanol, 2 mM L-glutamine, 1% penicillin-streptomycin and 1 mM HEPES buffer (CM).
Mitogenic Assay: Human peripheral blood mononuclear cells (2×10^5) were incubated with pokeweed mitogen at a final concentration of 0.1 μg/mL or Concanavalin A at a final concentration of 1.0 μg/mL in 96 well flat-bottomed microtiter plates (Falcon 3072, Becton Dickinson). Compounds to be tested were added at the initiation of culture. The final volume was 0.2 mL. The cultures were incubated in 95% humidified air/5% CO2 at 37° C. for 2 days (Concanavalin A) or 6 days (Pokeweed mitogen). Eighteen hours before termination of the cultures, each well was pulsed with 1 μCi of [^3 H]-thymidine. Cells from individual wells were harvested onto glass fiber filter paper with an automated multi-sample harvester. Filters were placed in scintillation fluid (Universal Cocktail, ICN Radiochemicals, Irvin, Calif.) and the [^3 H]-thymidine incorporation, in counts per minute (cpm), was measured in a Packard Tri-carb 4640 Scintillation Counter.
Peripheral blood mononuclear cells from three individuals were cultured with an optimal concentration of pokeweed mitogen, a T-dependent B-cell mitogen, in the presence of increasing concentrations of (Z)-4',5'-didehydro-5'-deoxy-5'-fluoroadenosine. […] Similar studies were performed culturing human peripheral blood cells with an optimal concentration of Concanavalin A, a potent T-cell mitogen.

Each structure is given as a SMILES string. pIC50: −log10 of the molar value.

In the case of `Nc1ncnc2c1ncn2[C@@H]1O/C(=C\F)[C@@H](O)[C@H]1O` [Compound A, (Z)-4',5'-didehydro-5'-deoxy-5'-fluoroadenosine], the activity at 1 µM was determined as 50.9% in experiment [1] (Homo sapiens, PBMC, 144 h, 1.0 μM, pokeweed mitogen 0.1 μg/mL, 6 days, read-out: Proliferation (% of Control) Pokeweed mitogen); 28.6% in experiment [2] (Mus musculus, 48 h, 1.0 μM, Concanavalin A 2.5 μg/mL, 2 days, read-out: Proliferation (% of Control) Concanavalin A mitogen); 15.8% in experiment [3] (Homo sapiens, PBMC, 48 h, 1.0 μM, Concanavalin A 1.0 μg/mL, 2 days, read-out: Proliferation (% of Control) Concanavalin A mitogen). In addition, the activity at 10 µM turned out to be 19.7% in experiment [1] (Homo sapiens, PBMC, 144 h, 10.0 μM, pokeweed mitogen 0.1 μg/mL, 6 days, read-out: Proliferation (% of Control) Pokeweed mitogen); 17.9% in experiment [2] (Mus musculus, 48 h, 10.0 μM, Concanavalin A 2.5 μg/mL, 2 days, read-out: Proliferation (% of Control) Concanavalin A mitogen); 3.7% in experiment [3] (Homo sapiens, PBMC, 48 h, 10.0 μM, Concanavalin A 1.0 μg/mL, 2 days, read-out: Proliferation (% of Control) Concanavalin A mitogen). In addition, the activity at 0.001 µM was found to be 97.4% in experiment [1] (Homo sapiens, PBMC, 144 h, .001 μM, pokeweed mitogen 0.1 μg/mL, 6 days, read-out: Proliferation (% of Control) Pokeweed mitogen); 96.3% in experiment [2] (Mus musculus, 48 h, .001 μM, Concanavalin A 2.5 μg/mL, 2 days, read-out: Proliferation (% of Control) Concanavalin A mitogen); 100% in experiment [3] (Homo sapiens, PBMC, 48 h, .001 μM, Concanavalin A 1.0 μg/mL, 2 days, read-out: Proliferation (% of Control) Concanavalin A mitogen). Moreover, the activity at 0.01 µM turned out to be 103% in experiment [1] (Homo sapiens, PBMC, 144 h, .01 μM, pokeweed mitogen 0.1 μg/mL, 6 days, read-out: Proliferation (% of Control) Pokeweed mitogen); 86% in experiment [2] (Mus musculus, 48 h, .01 μM, Concanavalin A 2.5 μg/mL, 2 days, read-out: Proliferation (% of Control) Concanavalin A mitogen); 101% in experiment [3] (Homo sapiens, PBMC, 48 h, .01 μM, Concanavalin A 1.0 μg/mL, 2 days, read-out: Proliferation (% of Control) Concanavalin A mitogen). For the same compound, the activity at 0.1 µM in experiment [1] (Homo sapiens, PBMC, 144 h, .1 μM, pokeweed mitogen 0.1 μg/mL, 6 days, read-out: Proliferation (% of Control) Pokeweed mitogen) stood at 72.1%; in experiment [2] (Mus musculus, 48 h, .1 μM, Concanavalin A 2.5 μg/mL, 2 days, read-out: Proliferation (% of Control) Concanavalin A mitogen) it was 51.8%; in experiment [3] (Homo sapiens, PBMC, 48 h, .1 μM, Concanavalin A 1.0 μg/mL, 2 days, read-out: Proliferation (% of Control) Concanavalin A mitogen), 66.4%. For the same compound, in experiment [1] (increasing concentrations), the “inhibition of pokeweed stimulated proliferation, in words” value was “dose dependent inhibition”. Moreover, the “Anti-Ovalbumin Titer ± S.D.” value in the experiment with anti-ovalbumin IgG (5 mg/Kg i.p. daily) turned out to be 550 ± 272; in the experiment with anti-ovalbumin IgG (10 mg/Kg i.p. daily), 375 ± 124. For the same compound, the “serum levels of anti-ovalbumin IgG compared to Controls” value with anti-ovalbumin IgG (5 or 10 mg/Kg i.p. daily, in words) was “significantly reduced”. In addition, the pIC50 in experiment [2] (Mus musculus, 48 h, murine cells, Concanavalin A 2.5 μg/mL, 2 days, read-out: IC50, inhibition of Concanavalin A stimulated proliferation) is 6.72; in experiment [3] (PBMC, 48 h, human cells, Concanavalin A 1.0 μg/mL, 2 days, read-out: IC50, inhibition of Concanavalin A stimulated proliferation) it was 6.60. Moreover, the “inhibition of Concanavalin A stimulated proliferation, in words” value is recorded as “dose dependent inhibition” in experiment [2] (murine cells, increasing concentrations) and “dose dependent inhibition” in experiment [3] (human cells, increasing concentrations).
